Source: patent publication US20260167692A1, “POLYPEPTIDES AND RELATED SUBSTANCES AGAINST HAIR LOSS AND DERMATITIS, AND USES THEREOF” (SHENZHEN INSTITUTES OF ADVANCED TECHNOLOGY, priority 2023, published 2026)
Like-named read-outs stand apart in the source and are kept apart here. Where a SMILES comes first, the peptide text is derived from it. Where no end group is shown, it is not given here.

What was measured:
[1] = molecular target: T1, GPR158 receptor (Homo sapiens, UniProt Q5T848); assay: Binding of Cy5-labeled Ocn49/Ocn19 to HeLa cells highly expressing GPR158; type: cell-based; conditions: Cy5-labeled polypeptide incubated with GPR158-HeLa cells at 4° C., washed with PBS, FIG. 7
T1 construct: expressed in transfected cells; host or cells: HeLa cell line highly expressing GPR158 (GPR158-HeLa)
T1 sequence (Q5T848 24-1215): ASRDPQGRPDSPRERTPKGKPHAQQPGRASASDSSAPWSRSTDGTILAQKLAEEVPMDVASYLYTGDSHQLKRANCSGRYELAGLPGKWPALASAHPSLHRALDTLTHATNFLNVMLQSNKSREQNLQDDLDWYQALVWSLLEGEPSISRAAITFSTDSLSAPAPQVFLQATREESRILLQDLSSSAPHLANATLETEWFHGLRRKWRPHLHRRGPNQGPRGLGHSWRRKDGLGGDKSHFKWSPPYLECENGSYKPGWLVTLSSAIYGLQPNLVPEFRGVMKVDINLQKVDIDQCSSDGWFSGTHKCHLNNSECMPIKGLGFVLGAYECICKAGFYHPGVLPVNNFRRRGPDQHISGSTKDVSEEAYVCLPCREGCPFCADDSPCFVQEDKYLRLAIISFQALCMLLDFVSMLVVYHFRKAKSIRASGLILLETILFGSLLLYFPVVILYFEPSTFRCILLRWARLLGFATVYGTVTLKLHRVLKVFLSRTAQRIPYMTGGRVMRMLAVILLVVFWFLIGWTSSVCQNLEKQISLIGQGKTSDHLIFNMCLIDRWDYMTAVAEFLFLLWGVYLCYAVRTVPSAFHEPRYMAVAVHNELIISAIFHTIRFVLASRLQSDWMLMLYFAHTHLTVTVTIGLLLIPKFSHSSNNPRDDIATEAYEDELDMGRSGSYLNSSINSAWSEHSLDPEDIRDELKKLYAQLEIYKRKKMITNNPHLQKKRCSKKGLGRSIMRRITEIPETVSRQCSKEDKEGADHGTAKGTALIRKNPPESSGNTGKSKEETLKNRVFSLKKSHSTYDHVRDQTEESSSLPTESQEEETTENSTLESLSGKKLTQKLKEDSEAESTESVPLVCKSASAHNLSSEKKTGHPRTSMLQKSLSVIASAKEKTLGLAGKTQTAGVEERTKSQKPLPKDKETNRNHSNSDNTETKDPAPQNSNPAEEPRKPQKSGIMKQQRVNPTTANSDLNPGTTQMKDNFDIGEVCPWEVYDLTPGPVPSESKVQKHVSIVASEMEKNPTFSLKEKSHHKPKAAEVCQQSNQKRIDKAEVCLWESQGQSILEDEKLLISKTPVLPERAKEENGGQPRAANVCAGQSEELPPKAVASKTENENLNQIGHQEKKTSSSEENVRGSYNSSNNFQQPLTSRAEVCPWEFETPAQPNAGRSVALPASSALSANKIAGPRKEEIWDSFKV
Method: The polypeptide prepared in Example 1 was employed in this example, and a binding condition was observed via in vitro culture of the polypeptide with a Hela cell line highly expressing a GPR158 receptor.
(§1) A specific method involved that Cy5-labeled full-length human osteocalcin Ocn49, truncated human osteocalcin Ocn19 (SEQ ID NO.1), and HeLa cells highly expressing GPR158 were incubated at 4° C., and cells were subsequently washed with PBS. Polypeptides incapable of binding to the cells were considered as non-specific ligands, while polypeptides capable of binding to the cells were considered as specifically binding ligands. An interaction between the polypeptides and the receptor was verified accordingly.

[2] = test system: male C57BL/6 mice; assay: Androgenetic (seborrheic) hair loss mouse model (DHT); type: in vivo; conditions: 28 days
Method: 7-week-old male C57BL/6 mice were treated with application of DHT (a modeling and experimental cycle of 28 days).
Hair at a telogen phase on 2×2 cm areas of dorsa was removed, and the areas were depilated using a hair removal cream. A DHT solution (0.2%, w/v) was prepared in an ethanol solution (50%, v/v). Mice received topical application of the DHT solution (0.1 mL/cm^2) to the depilated areas, once a day, for 28 consecutive days. Mice in the other group received the polypeptide via oral gavage at a concentration of 0.5 mg/kg/day while applied with the DHT daily.

[3] = test system: human primary dermal papilla cells; conditions: 10 nM DHT, 24 hours
Method: A fibroblast medium was used as a medium.
24 hours after serum-starved cells were removed, human primary dermal papilla cells were treated with a high level of androgen by adding 10 nM DHT to a culture medium. Expression levels of cellular molecular markers (including 5α-dehydrogenase, AR, CD200, IL-6, BCL2, BAX, and FABP3) were detected after 24 hours. Homologous polypeptides from different species (the polypeptides from Example 7) were concurrently added for co-culture, and the expression levels of the cellular molecular markers were detected after 24 hours.

[4] = test system: brain, gonad and adrenal gland tissues of male mice; assay: In vivo targeting of Cy5-labeled polypeptide in male mice (small animal imaging); design: species or system mouse; conditions: adult male mice, tail vein injection 100 μL of Cy5-labeled polypeptide, imaging after 24 hours, vs control group
Method: Adult male mice were intravenously injected via tail veins with the following: the Cy5-labeled polypeptide prepared in Example 2, a control polypeptide (a scrambled, irrelevant polypeptide), and a PBS. Each mouse received an injection volume of 100 μL. After 24 hours, detection was performed using a small animal imaging instrument.

[5] = test system: brains, ovaries, uteruses and adrenal glands of female mice; assay: In vivo targeting of polypeptide-ICG/Cy5 probe in female mice (small animal imaging); design: species or system mouse; conditions: adult female mice, tail vein injection 100 μL of ICG- or Cy5-labeled polypeptide, imaging after 24 hours, vs control group
Method: Adult female mice were intravenously injected via tail veins with the following: the polypeptide-ICG probe solution prepared in Example 2/Cy5-labeled polypeptide, an ICG solution (2 mM)/control polypeptide (a scrambled, irrelevant polypeptide), and a phosphate buffered saline (PBS). Each mouse received an injection volume of 100 μL. After 24 hours, detection was performed using a small animal imaging instrument.

[6] = test system: human primary dermal papilla cells; assay: Cortisol-induced psychological stress hair loss cell model; type: cell-based; conditions: 1 μM cortisol, 24 hours
Method: A fibroblast medium was used as a medium. […] Expression levels of cellular molecular markers (including 5α-dehydrogenase, GR, AR, CD200, IL-6, BCL2, and BAX) were detected after 24 hours.

[7] = molecular target: T2, human GPR158 receptor (on HeLa cells highly expressing a GPR158 receptor) (human, UniProt Q5T848 24-1215); assay: Cy5-labelled polypeptide incubated at 4 C with HeLa cells highly expressing GPR158, washed with PBS, fluorescence imaging
T2 construct: whole, on cells; also called GPR158-HeLa cells; human GPR158 receptor cells
T2 sequence (looked up): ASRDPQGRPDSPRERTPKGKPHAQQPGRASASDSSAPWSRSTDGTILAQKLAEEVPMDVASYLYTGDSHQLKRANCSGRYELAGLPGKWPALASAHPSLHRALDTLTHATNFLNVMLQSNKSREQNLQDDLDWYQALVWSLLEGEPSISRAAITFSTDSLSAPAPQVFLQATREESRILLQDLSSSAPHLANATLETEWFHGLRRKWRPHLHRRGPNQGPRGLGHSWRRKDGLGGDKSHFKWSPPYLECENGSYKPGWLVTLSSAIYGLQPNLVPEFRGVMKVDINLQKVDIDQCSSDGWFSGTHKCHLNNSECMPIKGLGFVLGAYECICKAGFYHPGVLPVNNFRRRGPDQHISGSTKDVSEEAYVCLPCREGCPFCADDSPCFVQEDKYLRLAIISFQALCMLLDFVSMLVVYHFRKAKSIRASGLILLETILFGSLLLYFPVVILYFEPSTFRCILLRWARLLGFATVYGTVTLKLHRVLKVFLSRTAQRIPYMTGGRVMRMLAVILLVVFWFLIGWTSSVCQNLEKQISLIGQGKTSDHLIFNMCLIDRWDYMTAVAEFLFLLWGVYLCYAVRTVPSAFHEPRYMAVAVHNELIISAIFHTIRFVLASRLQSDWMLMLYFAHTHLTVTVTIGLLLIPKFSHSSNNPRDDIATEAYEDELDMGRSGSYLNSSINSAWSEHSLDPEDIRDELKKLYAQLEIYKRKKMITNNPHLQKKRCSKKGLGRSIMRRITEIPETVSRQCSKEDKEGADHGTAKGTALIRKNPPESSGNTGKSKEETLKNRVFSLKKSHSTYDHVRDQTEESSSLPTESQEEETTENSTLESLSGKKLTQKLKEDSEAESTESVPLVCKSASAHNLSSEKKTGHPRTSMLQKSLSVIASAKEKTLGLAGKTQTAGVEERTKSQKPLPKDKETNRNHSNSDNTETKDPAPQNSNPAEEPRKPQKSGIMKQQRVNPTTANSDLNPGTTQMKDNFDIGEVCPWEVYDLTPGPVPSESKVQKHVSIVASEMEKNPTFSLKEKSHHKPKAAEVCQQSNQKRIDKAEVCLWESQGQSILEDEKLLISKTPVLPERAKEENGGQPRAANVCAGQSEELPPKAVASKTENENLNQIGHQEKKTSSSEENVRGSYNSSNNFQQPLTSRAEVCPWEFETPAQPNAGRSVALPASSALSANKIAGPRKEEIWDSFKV
Method: as §1

[8] = topical DHT 0.2% w/v, 0.1 mL/cm^2 once a day

In the case of “YLYQWLGAPVPYPDPLEPR (listed as Homo sapiens) [Ocn19, human osteocalcin-derived peptide (truncated human osteocalcin)]”, the “binding to the GPR158 receptor” value [1] is reported as “capable of binding to the GPR158 receptor” and the “internalization of the GPR158 receptor” value [1] is reported as “induces internalization of the GPR158 receptor”.

“Ocn49: full-length human osteocalcin (YLYQWLGAPVPYPDPLEPRREVCELNPDCDELADHIGFQEAYRRFYGPV)” was tested, and the “binding to the GPR158 receptor” value [1] was “capable of binding to the GPR158 receptor” and the “internalization of the GPR158 receptor” value [1] was “induces internalization of the GPR158 receptor”.

With C[C@]12CCC(=O)C[C@@H]1CC[C@@H]1[C@@H]2CC[C@]2(C)[C@@H](O)CC[C@@H]12 [DHT, dihydrotestosterone] the “expression level of AR in cervicodorsal skins (immunofluorescence)” value ([2]; topical DHT 0.2% w/v once a day, FIG. 13) was “significantly increased”, the “genes related to lipases, adipocyte differentiation, and lipoproteins in cervicodorsal skins” value ([2]; topical DHT 0.2% w/v once a day, FIG. 14) was “significantly increased” and the “skin expression level of β-catenin gene” value [2, 8] was “decrease”. The “skin expression levels of TGF-β, DKK1, IL-6, and AR genes” value [2, 8] was “increase”, the “apoptosis of hair follicle cells (Caspase-3, BCL2, BAX)” value [3] was “increased” and the “expression level of hair follicle regression marker MMP-9” value [3] was “increased”. The “expression level of hair follicle stem cell marker CD200” value [3] was “decreased”, the “expression levels of androgen receptor (AR), 5α-reductase, androgen synthesis-related enzymes (3βHSD and 17βHSD3)” value [3] was “significantly increased” and the “expression levels of fatty acid-binding protein FABP3 and adipogenic differentiation factor PPARγ” value [3] was “increased”. For the same molecule, the “expression levels of inflammatory factors (TGF-β, TNF-α, and IL-6)” value [3] was “increased”.

With CC(C)C[C@H](NC(=O)[C@@H](N)Cc1ccc(O)cc1)C(=O)NCC(=O)N[C@@H](C)C(=O)N[C@@H](CO)C(=O)N[C@H](C(=O)N1CCC[C@H]1C(=O)N[C@@H](CO)C(=O)N1CCC[C@H]1C(=O)N[C@@H](CC(=O)O)C(=O)N1CCC[C@H]1C(=O)N[C@@H](CC(C)C)C(=O)N[C@@H](CCC(=O)O)C(=O)N1CCC[C@H]1C(=O)N[C@H](C(=O)O)[C@@H](C)O)C(C)C [mO15, YLGASVPSPDPLEPT] (H-YLGASVPSPDPLEPT-OH; N-terminus and C-terminus assumed) the “fluorescence signals in brain tissues (brain entry)” value [4] was “enters the brains”, the “localization and binding in brain, gonad (testis, epididymis) and adrenal gland tissues (fluorescence signals)” value [4] was “specific localization and binding capabilities” and the “fluorescence signals in brain tissues (brain entry)” value [5] was “enters the brains”. The “localization and binding in hypothalamus, ovary and uterus, and adrenal gland tissues (fluorescence signals)” value [5] was “specific localization and binding capabilities”.

In the case of C[C@]12CCC(=O)C=C1CC[C@@H]1[C@@H]2[C@@H](O)C[C@@]2(C)[C@H]1CC[C@]2(O)C(=O)CO [cortisol], the “apoptosis of hair follicle cells (Caspase-3, BCL2, BAX)” value [6] is reported as “increased”, the “expression level of hair follicle regression marker MMP-9” value [6] is reported as “increased” and the “expression levels of STIP1 and inflammatory factors (TGF-β1 and IL-6)” value [6] is reported as “increased”. The “expression levels of glucocorticoid receptor (GR), androgen receptor (AR), and 5α-reductase” value [6] was “significantly increased” and the “expression levels of hair growth marker GAS6 and hair follicle stem cell markers CD200 and CD133” value [6] was “decreased”.

YLYQWLGAPVPYPDPLEPRREVCELNPDCDELADHIGFQEAYRRFYGPV (ligand, UniProt P02818 52-100, looked up, ends and bridges not checked; also: Cy5 label, site not given here, mature; also called human Ocn49) [full-length human osteocalcin Ocn49]: binds [7].

YLYQWLGAPVPYPDPLEPR (not fully specified, also called human Ocn19) [truncated human osteocalcin Ocn19 (human osteocalcin-derived peptide)]: binds [7].
